Key:
Format in all cases: in vivo
[1] = test system: Diamond Back Moth (Plutella xylostella); assay: B.1 Diamond Back Moth (Plutella xylostella), cabbage leaf dip; conditions: foliar, 500 ppm, 3rd instar larvae on dipped cabbage leaves, 72 hours after treatment, in comparison with untreated controls, read-out: mortality
Description: B.1 Diamond Back Moth (Plutella xylostella)
The active compound was dissolved at the desired concentration in a mixture of 1:1 (vol:vol) distilled water:aceteone. Surfactant (Kinetic HV) was added at a rate of 0.01% (vol/vol). The test solution was prepared at the day of use.
Leaves of cabbage were dipped in test solution and air-dried. Treated leaves were placed in petri dishes lined with moist filter paper and inoculated with ten 3rd instar larvae. Mortality was recorded 72 hours after treatment. Feeding damages were also recorded using a scale of 0-100%.

[2] = test system: Boll Weevil (Anthonomus grandis); assay: B.3 Boll Weevil (Anthonomus grandis), microtiter plate insect diet; conditions: 120 h, 800 ppm, sprayed onto insect diet, 5 days, in comparison with untreated controls, read-out: mortality (egg and larval)
Description: B.3 Boll Weevil (Anthonomus grandis)
For evaluating control of boll weevil (Anthonomus grandis) the test unit consisted of 96-well-microtiter plates containing an insect diet and 5-10 A. grandis eggs.
(§1) The compounds were formulated using a solution containing 75% v/v water and 25% v/v DMSO. Different concentrations of formulated compounds were sprayed onto the insect diet at 5 μl, using a custom built micro atomizer, at two replications.
After application, microtiter plates were incubated at about 25±1° C. and about 75±5% relative humidity for 5 days. Egg and larval mortality was then visually assessed.

[3] = test system: Mediterranean Fruitfly (Ceratitis capitata); assay: B.6 Mediterranean Fruitfly (Ceratitis capitata), microtiter plate insect diet; conditions: 120 h, 800 ppm, sprayed onto insect diet, 5 days, in comparison with untreated controls, read-out: mortality (egg and larval)
Description: B.6 Mediterranean Fruitfly (Ceratitis capitata)
For evaluating control of Mediterranean fruitfly (Ceratitis capitata) the test unit consisted of microtiter plates containing an insect diet and 50-80 C. capitata eggs.
as §1
(§2) After application, microtiter plates were incubated at about 28±1° C. and about 80±5% relative humidity for 5 days. Egg and larval mortality was then visually assessed.

[4] = test system: Tobacco Budworm (Heliothis virescens); assay: B.7 Tobacco Budworm (Heliothis virescens) I, microtiter plate insect diet; conditions: 120 h, 800 ppm, sprayed onto insect diet, 5 days, in comparison with untreated controls, read-out: mortality (egg and larval)
Description: B.7 Tobacco Budworm (Heliothis virescens) I
as §1, with “For evaluating control of tobacco budworm (Heliothis virescens) the test unit consisted of 96-well-microtiter plates containing an insect diet and 15-25 H. virescens eggs. The” for “The”, “at 10” for “at 5”
as §2

[5] = test system: Yellow Fever Mosquito (Aedes aegypti); assay: whole plant or invertebrate; conditions: 48 h, freshly hatched larvae in tap water, 2 days, in comparison with untreated controls, read-out: mortality (larval)
Description: B.11 Yellow Fever Mosquito (Aedes aegypti)
For evaluating control of yellow fever mosquito (Aedes aegypti) the test unit consisted of 96-well-microtiter plates containing 200 μl of tap water per well and 5-15 freshly hatched A. aegypti larvae.
The active compounds were formulated using a solution containing 75% (v/v) water and 25% (v/v) DMSO. Different concentrations of formulated compounds or mixtures were sprayed onto the insect diet at 2.5 μl, using a custom built micro atomizer, at two replications.

[6] = test system: Orchid thrips (dichromothrips corbetti); assay: B.12 Orchid thrips (dichromothrips corbetti), floral-immersion technique; conditions: adult thrips on dipped orchid petals, 72 hours after treatment, in comparison with untreated controls
Description: B.12 Orchid thrips (dichromothrips corbetti)
Dichromothrips corbetti adults used for bioassay were obtained from a colony maintained continuously under laboratory conditions. For testing purposes, the test compound is diluted in a 1:1 mixture of acetone:water (vol:vol), plus Kinetic HV at a rate of 0.01% v/v.
Thrips potency of each compound was evaluated by using a floral-immersion technique. All petals of individual, intact orchid flowers were dipped into treatment solution and allowed to dry in Petri dishes. Treated petals were placed into individual resealable plastic along with about 20 adult thrips. All test arenas were held under continuous light and a temperature of about 28° C. for duration of the assay. After 3 days, the numbers of live thrips were counted on each petal. The percent mortality was recorded 72 hours after treatment.

FC(F)(F)Oc1ccc(-n2cnc3c4ccc(/C=N/NC(=S)Nc5c(Cl)cccc5Cl)cc4ccc32)cc1 [C-37, 1-(2,6-dichlorophenyl)-3-[(E)-[3-[4-(trifluoromethoxy)phenyl]benzo[e]benzimidazol-7-yl]methyleneamino] thiourea]
≥ 75%: mortality at 500 ppm [1] | mortality at 800 ppm [2] | mortality at 800 ppm [3] | mortality at 800 ppm [4] | mortality at 800 ppm [5] | mortality at 500 ppm [6]

Cc1cc(Cl)ccc1NC(=S)N/N=C/c1ccc2c(ccc3c2ncn3-c2ccc(OC(F)(F)F)cc2)c1 [C-38, 1-(4-chloro-2-methyl-phenyl)-3-[(E)-[3-[4-(trifluoromethoxy)phenyl]benzo[e]benzimidazol-7-yl]methyleneamino] thiourea]
≥ 75%: mortality at 500 ppm [1] | mortality at 800 ppm [2] | mortality at 800 ppm [3] | mortality at 800 ppm [4] | mortality at 500 ppm [6]

Cc1ccc(C)c(NC(=S)N/N=C/c2ccc3c(ccc4c3ncn4-c3ccc(OC(F)(F)F)cc3)c2)c1 [C-41, 1-(2,5-dimethylphenyl)-3-[(E)-[3-[4-(trifluoromethoxy)phenyl]benzo[e]benzimidazol-7-yl]methyleneamino] thiourea]
≥ 75%: mortality at 500 ppm [1] | mortality at 800 ppm [2] | mortality at 800 ppm [3] | mortality at 800 ppm [4] | mortality at 800 ppm [5] | mortality at 500 ppm [6]

CC(C)c1ccccc1NC(=S)N/N=C/c1ccc2c(ccc3c2ncn3-c2ccc(OC(F)(F)F)cc2)c1 [C-45, 1-(2-isopropylphenyl)-3-[[3-[4-(trifluoromethoxy)phenyl]-3aH-benzo[e]benzimidazol-7-ylidene]methylimino] thiourea]
≥ 75%: mortality at 500 ppm [1] | mortality at 800 ppm [2] | mortality at 800 ppm [3] | mortality at 800 ppm [4] | mortality at 500 ppm [6]

Cc1cccc(C)c1NC(=S)N/N=C/c1ccc2c(c1)sc1c2ncn1-c1ccc(OC(F)(F)F)cc1 [C-47, 1-(2,6-dimethylphenyl)-3-[(E)-[3-[4-(trifluoromethoxy)phenyl]benzothiopheno[2,3-d]imidazol-6-yl]methyleneamino]thiourea]
≥ 75%: mortality at 500 ppm [1] | mortality at 800 ppm [2] | mortality at 800 ppm [3] | mortality at 800 ppm [4] | mortality at 800 ppm [5]

COc1cccc(C)c1NC(=S)N/N=C/c1ccc2c(ccc3c2ncn3-c2ccc(OC(F)(F)F)cc2)c1 [C-65, 1-(2-methoxy-6-methyl-phenyl)-3-[(E)-[3-[4-(trifluoromethoxy)phenyl]benzo[e]benzimidazol-7-yl]methyleneamino] thiourea]
≥ 75%: mortality at 500 ppm [1] | mortality at 800 ppm [2] | mortality at 800 ppm [3] | mortality at 800 ppm [4] | mortality at 800 ppm [5] | mortality at 500 ppm [6]

FC(F)(F)Oc1ccc(-n2cnc3c4ccc(/C=N/NC(=S)Nc5c(Br)cccc5Br)cc4ccc32)cc1 [C-66, 1-(2,6-dibromophenyl)-3-[(E)-[3-[4-(trifluoromethoxy)phenyl]benzo[e]benzimidazol-7-yl]methyleneamino] thiourea]
≥ 75%: mortality at 500 ppm [1] | mortality at 800 ppm [2] | mortality at 800 ppm [3] | mortality at 800 ppm [4] | mortality at 500 ppm [6]

Cc1cccc(C)c1NC(=S)N/N=C/c1ccc2c(ccc3c(-c4ccc(OC(F)(F)F)cc4)snc32)c1 [C-88, 1-(2,6-dimethylphenyl)-3-[(E)-[3-[4-(trifluoromethoxy)phenyl]benzo[g][2,1]benzothiazol-7-yl]methyleneamino] thiourea]
≥ 75%: mortality at 800 ppm [4] | mortality at 800 ppm [5]

CCc1cccc(CC)c1NC(=S)N/N=C/c1ccc2c(ccc3c(-c4ccc(OC(F)(F)F)cc4)n(C)nc32)c1 [C-93, 1-(2,6-diethylphenyl)-3-[(E)-[2-methyl-3-[4-(trifluoromethoxy)phenyl]benzo [g]indazol-7-yl]methyleneamino] thiourea]
≥ 75%: mortality at 500 ppm [1] | mortality at 800 ppm [2] | mortality at 800 ppm [4] | mortality at 800 ppm [5] | mortality at 500 ppm [6]

Cc1cccc(C)c1NC(=S)N/N=C/c1ccc2c(c1)CCC1C2=NN(C)C1c1ccc(OC(F)(F)F)cc1 (stereo not drawn) [C-94, 1-(2,6-dimethylphenyl)-3-[(E)-[2-methyl-3-[4-(trifluoromethoxy)phenyl]-3,3a,4,5-tetrahydrobenzo[g]indazol-7-yl]methyleneamino]thiourea]
≥ 75%: mortality at 500 ppm [1] | mortality at 800 ppm [2] | mortality at 800 ppm [4] | mortality at 800 ppm [5] | mortality at 500 ppm [6]

Cc1cccc(C)c1NC(=S)N/N=C/c1ccc2c(ccc3c(-c4ccc(OC(F)(F)F)cc4)n(C)nc32)c1 [C-96, 1-(2,6-dimethylphenyl)-3-[(E)-[2-methyl-3-[4-(trifluoromethoxy)phenyl]benzo[g]indazol-7-yl]methyleneamino] thiourea]
≥ 75%: mortality at 500 ppm [1] | mortality at 800 ppm [2] | mortality at 800 ppm [3] | mortality at 800 ppm [4] | mortality at 800 ppm [5] | mortality at 500 ppm [6]

COc1cccc(C)c1NC(=S)N/N=C/c1ccc2c(ccc3c(-c4ccc(OC(F)(F)F)cc4)n(C)nc32)c1 [C-97, 1-(2-methoxy-6-methyl-phenyl)-3-[(E)-[2-methyl-3-[4-(trifluoromethoxy)phenyl]benzo[g]indazol-7-yl]methyleneamino]thiourea]
≥ 75%: mortality at 500 ppm [1] | mortality at 800 ppm [2] | mortality at 800 ppm [3] | mortality at 800 ppm [4] | mortality at 800 ppm [5]

Cc1cccnc1NC(=S)N/N=C/c1ccc2c(ccc3c(-c4ccc(OC(F)(F)F)cc4)n(C)nc32)c1 [C-101, 1-(3-methyl-2-pyridyl)-3-[(E)-[2-methyl-3-[4-(trifluoromethoxy)phenyl]benzo[g]indazol-7-yl]methyleneamino]thiourea]
≥ 75%: mortality at 500 ppm [1] | mortality at 800 ppm [2] | mortality at 800 ppm [3] | mortality at 800 ppm [4] | mortality at 500 ppm [6]

Cc1cccc(C)c1NC(=S)N/N=C/c1ccc2c(ccc3c2ncn3-c2ncc(C(F)(F)F)cc2Cl)c1 [C-112, 1-[[3-[3-chloro-5-(trifluoromethyl)-2-pyridyl]-3aH-benzo[e]benzimidazol-7-ylidene]methylimino]-3-(2,6-dimethylphenyl)thiourea]
≥ 75%: mortality at 800 ppm [2] | mortality at 800 ppm [3] | mortality at 800 ppm [4] | mortality at 800 ppm [5]

CC(C)c1ccccc1N1C(=O)CS/C1=N\C(=O)Nc1ccc2c(ccc3c2ncn3-c2ccc(OC(F)(F)F)cc2)c1 [C-115, (1Z)-1-[3-(2-isopropylphenyl)-4-oxo-thiazolidin-2-ylidene]-3-[3-[4(trifluoromethoxy)phenyl]benzo[e]benzimidazol-7-yl]urea]
≥ 75%: mortality at 800 ppm [2] | mortality at 800 ppm [3] | mortality at 800 ppm [4] | mortality at 800 ppm [5]

CC(C)c1ccccc1N/C(S)=N/C(=O)Nc1ccc2c(ccc3c2ncn3-c2ccc(OC(F)(F)F)cc2)c1 [C-117, (1Z)-1-[(2-isopropylanilino)-sulfanyl-methylene]-3-[3-[4-(trifluoromethoxy)phenyl]benzo[e]benzimidazol-7-yl]urea]
≥ 75%: mortality at 800 ppm [2] | mortality at 800 ppm [3] | mortality at 800 ppm [4] | mortality at 800 ppm [5]

— US9497970B2, “Pesticide compounds” (priority 2013, dated 2016)
